Reference: patent publication US20240383913A1, “THIOPHENE RING COMPOUND, PREPARATION METHOD THEREFOR AND APPLICATION THEREOF” (CENTER FOR EXCELLENCE IN MOLECULAR CELL SCIENCE, CHINESE …, priority 2021, published 2024)

Legend:
5-HT1A receptor [1] = molecular target: T1, 5-HT1A receptor (Homo sapiens (Human), UniProt P08908); test: 5-HT1A receptor Gαi1 BRET (G protein trimer dissociation); type: cell-based; settings: 5-HT1A receptor, G protein pathway;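 note: cells transiently co-expressing 5-HT1A receptor, luciferase-tagged Gαi1, Gβ3 and GFP-tagged Gγ9, seeded in 96-well plates for BRET measurement of G protein signaling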
T1 sequence (P08908 whole entry): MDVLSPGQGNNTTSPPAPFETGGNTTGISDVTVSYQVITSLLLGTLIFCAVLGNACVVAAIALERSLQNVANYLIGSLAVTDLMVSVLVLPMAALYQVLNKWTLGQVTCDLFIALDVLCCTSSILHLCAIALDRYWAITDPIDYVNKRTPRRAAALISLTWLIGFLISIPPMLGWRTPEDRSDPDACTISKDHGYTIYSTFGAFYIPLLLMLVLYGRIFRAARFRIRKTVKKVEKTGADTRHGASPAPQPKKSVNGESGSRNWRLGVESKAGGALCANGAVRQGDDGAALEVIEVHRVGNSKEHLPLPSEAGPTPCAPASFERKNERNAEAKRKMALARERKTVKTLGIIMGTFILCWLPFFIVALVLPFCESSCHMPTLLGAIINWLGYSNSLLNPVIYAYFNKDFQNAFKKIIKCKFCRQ
Description: (§1) The affinity of the compounds of the present disclosure for the 5-HTIA receptors was determined by the method of radioligand competition experiment. In the first step, a cell membrane component containing specific 5-HTIA receptor was prepared. A 10 cm culture dish was used for transfection with 10 ng of the 5-HTIA receptor and 40 μL of PEI. After 48 hours, the 10 cm culture dish was taken out from the cell incubator and the cultured cells had expressed the 5-HTIA receptor. A vacuum pump was used to suck off the culture medium, 3 mL of lysis buffer was added to each culture dish, and the cells were placed in a 4° C. cold room for 10 minutes. After the cells were detached, the cells were transferred to a 15 mL centrifuge tube and centrifuged at 1500 rpm for 5 minutes at 4° C., and the supernatant was discarded. The cell pellet was transferred to a tissue homogenizer, and 3 mL of lysis buffer was added and fully ground until the cells were broken. Then, cell suspension was equally aliquoted into several EP tubes, centrifuged at 12000 rpm for 5 minutes at 4° C., and the supernatant was discarded. The precipitate was the cell membrane component containing the 5-HT1A receptor. […] First, a standard binding buffer was added to the cell membrane component containing the 5-HT1A receptor, and the cell membrane was disrupted and resuspended with an electric tissue homogenizer. 30 μL of membrane protein suspension was added to each well of a 96-well plate. Then, 30 μL of different drugs were added to the 96-well plate sequentially from bottom to top to ensure that the final drug concentrations were 10^−5 M, 10^−6 M, 10^−7 M, 10^−8 M, 10^−9 M, and 0 M, with two replicates per treatment. Next, 30 μL of [3H]-LSD was added to each well of the 96-well plate. The plate was incubated for 2 hours at room temperature in the dark. Detection was conducted. The machine readout value reflected the amount of [3H]-LSD bound on the membrane, and after further data processing, the affinity Ki values of different compounds for the 5-HTIA receptor were obtained. To examine the downstream G protein signaling pathway mediated by 5-HTIA receptors, on the first day, a 6 cm culture dish was used for transfection with 1 μg of 5-HTIA receptors, 1 μg of Gαi1 containing C-terminal seaweed luciferase (Gαi1-Rluc), 1 μg of Gβ3, 1 μg of Gγ9 containing C-terminal green fluorescent protein (Gγ9-GFP), and 16 μL of PEI. The next day, the confluent cells of a 6 cm culture dish were digested and reseeded into a 96-well plate with 100 μL of culture medium was added to each well. On the third day, the drugs were added for test. The 96-well plate was taken out from the cell incubator to decant the culture medium, 40 μL of the substrate coelenterazine 400a (final concentration of 5 μM) was added to each well, and then 20 μL of different drugs were added sequentially from left to right to ensure that the final concentration of the drug decreased gradually from bottom to top, with two replicates per treatment. Finally, the prepared samples were loaded on machine for test. The machine readout value reflected the dissociation of G protein trimer, and thereby indicated the degree of activation of the G protein signaling pathway downstream of the 5-HTIA receptors.

dopamine D2 receptors [2] = molecular target: T2, dopamine D2 receptors (Homo sapiens (Human), UniProt P14416); test: Affinity for dopamine D2 receptors, radioligand competition with [3H]-Methylspiperone; type: binding; settings: 293T membrane transiently expressing D2
T2 sequence (P14416 whole entry): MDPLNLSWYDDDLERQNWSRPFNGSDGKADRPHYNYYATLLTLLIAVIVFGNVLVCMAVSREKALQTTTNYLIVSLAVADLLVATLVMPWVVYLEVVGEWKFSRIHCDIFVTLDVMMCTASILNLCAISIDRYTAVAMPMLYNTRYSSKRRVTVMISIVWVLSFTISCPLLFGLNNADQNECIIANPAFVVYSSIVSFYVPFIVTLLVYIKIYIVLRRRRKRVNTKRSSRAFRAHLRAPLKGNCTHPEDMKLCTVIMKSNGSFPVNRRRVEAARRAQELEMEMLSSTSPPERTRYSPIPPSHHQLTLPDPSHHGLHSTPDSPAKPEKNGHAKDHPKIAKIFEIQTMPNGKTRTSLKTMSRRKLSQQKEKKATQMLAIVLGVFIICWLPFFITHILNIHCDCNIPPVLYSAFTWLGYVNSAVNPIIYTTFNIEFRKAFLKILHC
Description: The affinity of the compounds of the present disclosure for the dopamine D2 receptors was determined by the method of radioligand competition experiment. In the first step, a cell membrane component containing specific dopamine D2 receptors was prepared. A 10 cm culture dish was used for transfection with 10 ng of the dopamine D2 receptors and 40 μL of polyethylenimine (PEI hereafter). After 48 hours, the 10 cm culture dish was taken out from the cell culture incubator and the cultured cells had expressed the dopamine D2 receptors. A vacuum pump was used to suck off the culture medium, 3 mL of lysis buffer was added to each culture dish, and the cells were placed in a 4° C. cold room for 10 minutes. After the cells were detached, the cells were transferred to a 15 mL centrifuge tube and centrifuged at 1500 rpm for 5 minutes at 4° C., and the supernatant was discarded. The cell pellet was transferred to a tissue homogenizer, and 3 mL of lysis buffer was added and fully ground until the cells were broken. Then, cell suspension was equally aliquoted into several EP tubes, centrifuged at 12000 rpm for 5 minutes at 4° C., and the supernatant was discarded. The precipitate was the cell membrane component containing the dopamine D2 receptors. […] First, a standard binding buffer was added to the cell membrane component containing the dopamine D2 receptors, and the cell membrane was disrupted and resuspended with an electric tissue homogenizer. 30 μL of membrane protein suspension was added to each well of a 96-well plate. Then, 30 μL of different drugs were added to the 96-well plate sequentially from bottom to top to ensure that the final drug concentrations were 10^−5 M, 10^−6 M, 10^−7 M, 10^−8 M, 10^−9 M, and 0 M, with two replicates per treatment. Next, 30 μL of [3H]-Methylspiperone was added to each well of the 96-well plate. The plate was incubated for 2 hours at room temperature in the dark. Detection was conducted. The machine readout value reflected the amount of [3H]-Methylspiperone bound on the membrane, and after further data processing, the affinity Ki values of different compounds for the dopamine D2 receptors were obtained.

dopamine D2 receptors [3] = molecular target: T2, dopamine D2 receptors; test: Dopamine D2 receptor Gαi1 BRET (G protein trimer dissociation); type: cell-based; settings: D2 receptor, G protein pathway;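 note: transfected cells co-expressing D2 receptor, Gαi1-Rluc, Gβ3 and Gγ9-GFP, BRET with coelenterazine 400a at 5 µM read as G protein trimer dissociation, graded drug concentrations in duplicate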
Description: To examine the downstream G protein signaling pathway mediated by dopamine D2 receptors, on the first day, a 6 cm culture dish was used for transfection with 1 μg of dopamine D2 receptors, 1 μg of Gαi1 containing a C-terminal seaweed luciferase (Gαi1-Rluc), 1 μg of Gβ3, 1 μg of Gγ9 containing C-terminal green fluorescent protein (Gγ9-GFP), and 16 μL of PEI. At the same time, in order to examine the downstream β-arrestin2 signaling pathway mediated by dopamine D2 receptors, on the first day, a 6 cm culture dish was used for transfection with 500 μg of dopamine D2 receptors containing C-terminal seaweed luciferase (D2-Rluc), 500 μg of G protein-coupled receptor kinase 2 (GRK2), 2500 μg of β-arrestin2 containing N-terminal green fluorescent protein (GFP2-ARRB2) mixed with 14 μL of PEI. The next day, the confluent cells of a 6 cm culture dish were digested and reseeded into a 96-well plate with 100 μL of culture medium added to each well. On the third day, the drugs were added for test. The 96-well plate was taken out from the cell incubator to decant the culture medium, 40 μL of the substrate coelenterazine 400a (final concentration of 5 μM) was added to each well, and then 20 μL of different drugs were added sequentially from left to right to ensure that the final concentration of the drug decreased gradually from bottom to top, with two replicates per treatment. Finally, the prepared samples were loaded on machine for test. The machine readout value reflected the recruitment of β-arrestin2 to the membrane or the dissociation of G protein trimer. The former indicated the degree of activation of the β-arrestin2 signaling pathway downstream of the dopamine D2 receptors, and the latter indicated the degree of activation of the G protein signaling pathway downstream of the dopamine D2 receptors.

5-HT2A receptor = 5-HT2A receptor (Homo sapiens (Human), UniProt P28223); test: Affinity for 5-HT2A receptors, radioligand competition with [3H]-ketanserin; type: binding; settings: 293T membrane transiently expressing 5-HT2A
Chain of 5-HT2A receptor (P28223 whole entry): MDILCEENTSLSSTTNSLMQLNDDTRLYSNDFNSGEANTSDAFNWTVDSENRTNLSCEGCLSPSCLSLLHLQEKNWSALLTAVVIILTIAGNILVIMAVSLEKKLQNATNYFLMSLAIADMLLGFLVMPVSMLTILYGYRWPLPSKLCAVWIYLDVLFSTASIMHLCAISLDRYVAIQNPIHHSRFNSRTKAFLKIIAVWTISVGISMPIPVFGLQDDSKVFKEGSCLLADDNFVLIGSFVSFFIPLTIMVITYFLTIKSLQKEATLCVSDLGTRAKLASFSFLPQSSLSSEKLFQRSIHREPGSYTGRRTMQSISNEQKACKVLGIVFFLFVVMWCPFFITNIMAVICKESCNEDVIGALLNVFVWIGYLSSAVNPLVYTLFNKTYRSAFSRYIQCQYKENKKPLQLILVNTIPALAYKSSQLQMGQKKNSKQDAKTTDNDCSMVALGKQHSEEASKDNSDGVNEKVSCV
Description: The affinity of the compounds of the present disclosure for the 5-HT2A receptors was determined by the method of radioligand competition experiment. In the first step, a cell membrane component containing specific 5-HT2A receptor was prepared. A 10 cm dish was used for transfection with 10 ng of the 5-HT2A receptor and 40 μL of PEI. After 48 hours, the 10 cm dish was taken out from the cell incubator and the cultured cells had expressed the 5-HT2A receptor. A vacuum pump was used to suck off the culture medium, 3 mL of lysis buffer was added to each culture dish, and the cells were placed in a 4° C. cold room for 10 minutes. After the cells were detached, the cells were transferred to a 15 mL centrifuge tube and centrifuged at 1500 rpm for 5 minutes at 4° C., and the supernatant was discarded. The cell pellet was transferred to a tissue homogenizer, and 3 mL of lysis buffer was added and fully ground until the cells were broken. Then, cell suspension was equally aliquoted into several EP tubes, centrifuged at 12000 rpm for 5 minutes at 4° C., and the supernatant was discarded. The precipitate was the cell membrane component containing the 5-HT2A receptor. […] First, a standard binding buffer was added to the cell membrane component containing the 5-HT2A receptor, and the cell membrane was disrupted and resuspended with an electric tissue homogenizer. 30 μL of membrane protein suspension was added to each well of a 96-well plate. Then, 30 μL of different drugs were added to the 96-well plate sequentially from bottom to top to ensure that the final drug concentrations were 10^−5 M, 10^−6 M, 10^−7 M, 10^−8 M, 10^−9 M, and 0 M, with two replicates per treatment. Next, 30 μL of [3H]-ketanserin was added to each well of the 96-well plate. The plate was incubated for 2 hours at room temperature in the dark. Detection was conducted. The machine readout value reflected the amount of [3H]-ketanserin bound on the membrane, and after further data processing, the affinity Ki values of different compounds for the 5-HT2A receptor were obtained.

5-HT1A receptor [4] = molecular target: T1, 5-HT1A receptor; test: Affinity for 5-HT1A receptors, radioligand competition with [3H]-LSD; type: binding; settings: 293T membrane transiently expressing 5-HT1A; [3H]-LSD; read-out: 5-HT1A affinity Ki;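 note: membranes from cells transiently transfected with 5-HT1A receptor, bound [3H]-LSD displaced by compound at 10^-9 to 10^-5 M, 2 h incubation at room temperature in the dark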
Description: as §1

[5] = test system: hyperlocomotion of the mice induced by MK801; test: Open field test, hyperlocomotion induced by MK801; type: in vivo, C57B6 male mice; settings: for Distance (cm) travelled in 45 minutes: 0-45 minute interval after MK-801; for Distance travelled (cm): 5-minute bin
Description: Experimental method: The experimental animals were C57B6 male mice, n=8 in each group. This model used C57B6 mice as experimental animals. Hyperlocomotion of the mice in open field was induced by acute injection of a NMDA antagonist MK801. and modeled to test the inhibitory effect of different compounds on hyperkinesia phenotype induced by MK801. All mouse behavior experiments were carried out during the light period, and the whole process was recorded by the camera and locomotive data were tracked and analyzed by behavioral tracking software. The compounds were administered intraperitoneally. Immediately after the injection, the mice entered the open field and their movement trajectories were recorded by the camera. After 30 minutes, the mice received 0.2 mg/kg of MK801 by intraperitoneal injection and returned to the open field immediately after administration and the movement trajectories were further recorded for 120 minutes. The accumulative travelled distance of the mice was counted in a 5-minute bin. Data statistics were performed using Student-t-test analysis, *p<0.05, ** p<0.01, *** p<0.001, **** p<0.0001.

CN(C)C(=O)N[C@H]1CC[C@H](CCN2CCN3c4cccc5scc(c45)CC3C2)CC1 (single isomer, unassigned; (-)) [(−)-I-27]
Gαi1 BRET (Emax %) (5-HT1A receptor [1]): (76%) | EC50 (5-HT1A receptor [1]; read-out: Gαi1 BRET EC50): 166 nM | Ki (dopamine D2 receptors [2]): 120 nM | Gαi1 BRET (Emax %) (dopamine D2 receptors [3]): (72.04%) | EC50 (dopamine D2 receptors [3]; read-out: Gαi1 BRET EC50): 3.76 nM | Ki (5-HT2A receptor): 2290 nM | Ki (5-HT1A receptor [4]): 80 nM | Inhibition of MK801-induced hyperlocomotion ([5]; 0.4/0.2/0.1 mg/kg intraperitoneally, MK801 0.2 mg/kg): significantly inhibit hyperlocomotion | Distance (cm) travelled in 45 minutes ([5]; (−)-I-27 0.1 mg/kg i.p. + MK801 0.2 mg/kg): 6882.3 cm | Distance travelled (cm) ([5]; (−)-I-27 0.1 mg/kg i.p. + MK801 0.2 mg/kg, 5 minutes after MK801): 420.96 ± 66.32 cm | Distance travelled (cm) ([5]; (−)-I-27 0.1 mg/kg i.p. + MK801 0.2 mg/kg, 10 minutes after MK801): 405.21 ± 55.18 cm | Distance travelled (cm) ([5]; (−)-I-27 0.1 mg/kg i.p. + MK801 0.2 mg/kg, 15 minutes after MK801): 482.21 ± 74.21 cm | Distance travelled (cm) ([5]; (−)-I-27 0.1 mg/kg i.p. + MK801 0.2 mg/kg, 20 minutes after MK801): 708.05 ± 61.74 cm | Distance travelled (cm) ([5]; (−)-I-27 0.1 mg/kg i.p. + MK801 0.2 mg/kg, 25 minutes after MK801): 895.54 ± 92.18 cm | Distance travelled (cm) ([5]; (−)-I-27 0.1 mg/kg i.p. + MK801 0.2 mg/kg, 30 minutes after MK801): 1035.67 ± 122.77 cm | Distance travelled (cm) ([5]; (−)-I-27 0.1 mg/kg i.p. + MK801 0.2 mg/kg, 35 minutes after MK801): 1075.2 ± 123.55 cm | Distance travelled (cm) ([5]; (−)-I-27 0.1 mg/kg i.p. + MK801 0.2 mg/kg, 45 minutes after MK801): 942.97 ± 82.87 cm | Distance travelled (cm) ([5]; (−)-I-27 0.1 mg/kg i.p. + MK801 0.2 mg/kg, 50 minutes after MK801): 985.86 ± 96.6 cm | Distance travelled (cm) ([5]; (−)-I-27 0.1 mg/kg i.p. + MK801 0.2 mg/kg, 55 minutes after MK801): 925.44 ± 118.24 cm | Distance travelled (cm) ([5]; (−)-I-27 0.1 mg/kg i.p. + MK801 0.2 mg/kg, 60 minutes after MK801): 937.96 ± 121.52 cm | Distance travelled (cm) ([5]; (−)-I-27 0.1 mg/kg i.p. + MK801 0.2 mg/kg, 65 minutes after MK801): 931.08 ± 108.91 cm | Distance travelled (cm) ([5]; (−)-I-27 0.1 mg/kg i.p. + MK801 0.2 mg/kg, 70 minutes after MK801): 839.2 ± 104.29 cm | Distance travelled (cm) ([5]; (−)-I-27 0.1 mg/kg i.p. + MK801 0.2 mg/kg, 75 minutes after MK801): 773.65 ± 117.99 cm | Distance travelled (cm) ([5]; (−)-I-27 0.1 mg/kg i.p. + MK801 0.2 mg/kg, 80 minutes after MK801): 691.57 ± 121.79 cm | Distance travelled (cm) ([5]; (−)-I-27 0.1 mg/kg i.p. + MK801 0.2 mg/kg, 85 minutes after MK801): 682.97 ± 115.06 cm | Distance travelled (cm) ([5]; (−)-I-27 0.1 mg/kg i.p. + MK801 0.2 mg/kg, 90 minutes after MK801): 611.63 ± 112.71 cm | Distance travelled (cm) ([5]; (−)-I-27 0.1 mg/kg i.p. + MK801 0.2 mg/kg, 95 minutes after MK801): 432.95 ± 85.66 cm | Distance travelled (cm) ([5]; (−)-I-27 0.1 mg/kg i.p. + MK801 0.2 mg/kg, 100 minutes after MK801): 405.27 ± 69.97 cm | Distance travelled (cm) ([5]; (−)-I-27 0.1 mg/kg i.p. + MK801 0.2 mg/kg, 105 minutes after MK801): 391.87 ± 78.94 cm | Distance travelled (cm) ([5]; (−)-I-27 0.1 mg/kg i.p. + MK801 0.2 mg/kg, 110 minutes after MK801): 351.08 ± 112.22 cm | Distance travelled (cm) ([5]; (−)-I-27 0.1 mg/kg i.p. + MK801 0.2 mg/kg, 115 minutes after MK801): 310.3 ± 83.61 cm | Distance travelled (cm) ([5]; (−)-I-27 0.1 mg/kg i.p. + MK801 0.2 mg/kg, 120 minutes after MK801): 339.28 ± 95.35 cm | Distance travelled (cm) ([5]; (−)-I-27 0.1 mg/kg i.p., 0 minutes, before MK801): 446.62 ± 49.69 cm | Distance travelled (cm) ([5]; (−)-I-27 0.1 mg/kg i.p., −5 minutes, before MK801): 473.13 ± 38.54 cm | Distance travelled (cm) ([5]; (−)-I-27 0.1 mg/kg i.p., −10 minutes, before MK801): 479.62 ± 34 cm | Distance travelled (cm) ([5]; (−)-I-27 0.1 mg/kg i.p., −15 minutes, before MK801): 522.39 ± 41.17 cm | Distance travelled (cm) ([5]; (−)-I-27 0.1 mg/kg i.p., −20 minutes, before MK801): 606.78 ± 43.01 cm | Distance travelled (cm) ([5]; (−)-I-27 0.1 mg/kg i.p., −25 minutes, before MK801): 827.15 ± 76.34 cm | Distance (cm) travelled in 45 minutes ([5]; (−)-I-27 0.2 mg/kg i.p. + MK801 0.2 mg/kg): 5849.12 cm | Distance travelled (cm) ([5]; (−)-I-27 0.2 mg/kg i.p. + MK801 0.2 mg/kg, 5 minutes after MK801): 527.23 ± 55.9 cm | Distance travelled (cm) ([5]; (−)-I-27 0.2 mg/kg i.p. + MK801 0.2 mg/kg, 10 minutes after MK801): 353.73 ± 61.92 cm | Distance travelled (cm) ([5]; (−)-I-27 0.2 mg/kg i.p. + MK801 0.2 mg/kg, 15 minutes after MK801): 415.6 ± 122.18 cm | Distance travelled (cm) ([5]; (−)-I-27 0.2 mg/kg i.p. + MK801 0.2 mg/kg, 20 minutes after MK801): 555.77 ± 141.94 cm | Distance travelled (cm) ([5]; (−)-I-27 0.2 mg/kg i.p. + MK801 0.2 mg/kg, 25 minutes after MK801): 775.2 ± 174.1 cm | Distance travelled (cm) ([5]; (−)-I-27 0.2 mg/kg i.p. + MK801 0.2 mg/kg, 30 minutes after MK801): 815.56 ± 168.41 cm | Distance travelled (cm) ([5]; (−)-I-27 0.2 mg/kg i.p. + MK801 0.2 mg/kg, 35 minutes after MK801): 844.11 ± 141.81 cm | Distance travelled (cm) ([5]; (−)-I-27 0.2 mg/kg i.p. + MK801 0.2 mg/kg, 40 minutes after MK801): 771.62 ± 111.37| cm | Distance travelled (cm) ([5]; (−)-I-27 0.2 mg/kg i.p. + MK801 0.2 mg/kg, 45 minutes after MK801): 790.3 ± 145.96 cm | Distance travelled (cm) ([5]; (−)-I-27 0.2 mg/kg i.p. + MK801 0.2 mg/kg, 50 minutes after MK801): 741.75 ± 130.61 cm | Distance travelled (cm) ([5]; (−)-I-27 0.2 mg/kg i.p. + MK801 0.2 mg/kg, 55 minutes after MK801): 547.84 ± 71.53 cm
